In general, pIC50 refers to −log10 of the IC50, conventionally taken in molar units.

The values below come from the supplement of paper PMC12076712.

Common to all, as to test: pIC50, kinobeads binding competition
Assay [1] deals with T1, BRSK2 (UniProt Q8IWQ3).
T1 sequence (whole entry): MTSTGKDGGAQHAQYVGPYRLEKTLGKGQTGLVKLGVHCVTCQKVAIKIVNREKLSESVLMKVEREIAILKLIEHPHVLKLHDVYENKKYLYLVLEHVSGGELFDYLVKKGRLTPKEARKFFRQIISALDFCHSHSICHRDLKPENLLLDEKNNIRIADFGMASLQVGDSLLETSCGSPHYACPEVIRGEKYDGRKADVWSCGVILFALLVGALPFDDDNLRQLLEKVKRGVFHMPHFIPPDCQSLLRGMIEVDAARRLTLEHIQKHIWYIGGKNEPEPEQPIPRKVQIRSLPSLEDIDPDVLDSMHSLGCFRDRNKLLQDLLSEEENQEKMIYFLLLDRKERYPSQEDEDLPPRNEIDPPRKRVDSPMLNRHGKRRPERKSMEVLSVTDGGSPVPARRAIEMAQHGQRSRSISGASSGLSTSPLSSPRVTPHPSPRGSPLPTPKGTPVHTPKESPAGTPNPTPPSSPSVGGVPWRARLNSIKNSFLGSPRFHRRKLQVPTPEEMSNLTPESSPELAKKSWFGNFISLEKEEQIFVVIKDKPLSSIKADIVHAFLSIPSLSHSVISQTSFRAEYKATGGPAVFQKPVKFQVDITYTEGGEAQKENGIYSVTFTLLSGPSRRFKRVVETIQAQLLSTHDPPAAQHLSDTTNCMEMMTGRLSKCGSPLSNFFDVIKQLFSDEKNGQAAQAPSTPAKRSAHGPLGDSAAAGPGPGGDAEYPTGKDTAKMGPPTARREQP
An outline of the steps: (§1)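 To obtain pIC50, fold changes versus vehicle were fitted to logistic dose-response curves (R drc package) across biological duplicates. Protein binding to Kinobeads was quantified by TMT10 LC-MS/MS of digested bead-bound proteins. Treatments used nine concentrations with a top of 30 μM, applied to live Jurkat cells in 1:4 steps for 60 min at 37 °C before lysis, or to Jurkat lysate or a 1:1:1:1 HEK293/K-562/HepG2/placenta lysate mix in 1:5 steps for 60 min at 4 °C.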

In assay [2] the target is T2, UniProt O14920.
T2 sequence (whole entry): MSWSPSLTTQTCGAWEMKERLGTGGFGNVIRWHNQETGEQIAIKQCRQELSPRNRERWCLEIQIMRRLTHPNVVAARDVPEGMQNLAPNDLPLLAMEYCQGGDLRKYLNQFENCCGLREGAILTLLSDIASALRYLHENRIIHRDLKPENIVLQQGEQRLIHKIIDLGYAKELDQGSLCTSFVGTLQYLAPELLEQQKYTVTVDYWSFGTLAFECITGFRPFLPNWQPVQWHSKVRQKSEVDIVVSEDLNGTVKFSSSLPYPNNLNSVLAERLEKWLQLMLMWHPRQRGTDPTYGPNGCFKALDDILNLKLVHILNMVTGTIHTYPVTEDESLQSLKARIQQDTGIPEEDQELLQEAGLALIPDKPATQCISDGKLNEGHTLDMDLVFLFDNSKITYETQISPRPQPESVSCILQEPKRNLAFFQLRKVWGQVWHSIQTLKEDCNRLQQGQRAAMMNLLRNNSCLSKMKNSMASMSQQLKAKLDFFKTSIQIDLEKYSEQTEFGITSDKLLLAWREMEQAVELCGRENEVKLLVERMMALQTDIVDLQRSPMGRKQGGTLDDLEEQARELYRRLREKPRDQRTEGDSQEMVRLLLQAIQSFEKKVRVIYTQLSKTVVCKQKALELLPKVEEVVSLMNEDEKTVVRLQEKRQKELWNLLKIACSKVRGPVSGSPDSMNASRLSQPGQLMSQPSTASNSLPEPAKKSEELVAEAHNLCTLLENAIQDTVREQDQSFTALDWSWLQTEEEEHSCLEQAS
The essentials: as §1

The target in assay [3] is EPHA4 (UniProt P54764). The note with it: cell material: Lysate mix. An outline of the steps:
as §1

For assay [4], the target named is T3, BCR (UniProt P11274).
T3 sequence (whole entry): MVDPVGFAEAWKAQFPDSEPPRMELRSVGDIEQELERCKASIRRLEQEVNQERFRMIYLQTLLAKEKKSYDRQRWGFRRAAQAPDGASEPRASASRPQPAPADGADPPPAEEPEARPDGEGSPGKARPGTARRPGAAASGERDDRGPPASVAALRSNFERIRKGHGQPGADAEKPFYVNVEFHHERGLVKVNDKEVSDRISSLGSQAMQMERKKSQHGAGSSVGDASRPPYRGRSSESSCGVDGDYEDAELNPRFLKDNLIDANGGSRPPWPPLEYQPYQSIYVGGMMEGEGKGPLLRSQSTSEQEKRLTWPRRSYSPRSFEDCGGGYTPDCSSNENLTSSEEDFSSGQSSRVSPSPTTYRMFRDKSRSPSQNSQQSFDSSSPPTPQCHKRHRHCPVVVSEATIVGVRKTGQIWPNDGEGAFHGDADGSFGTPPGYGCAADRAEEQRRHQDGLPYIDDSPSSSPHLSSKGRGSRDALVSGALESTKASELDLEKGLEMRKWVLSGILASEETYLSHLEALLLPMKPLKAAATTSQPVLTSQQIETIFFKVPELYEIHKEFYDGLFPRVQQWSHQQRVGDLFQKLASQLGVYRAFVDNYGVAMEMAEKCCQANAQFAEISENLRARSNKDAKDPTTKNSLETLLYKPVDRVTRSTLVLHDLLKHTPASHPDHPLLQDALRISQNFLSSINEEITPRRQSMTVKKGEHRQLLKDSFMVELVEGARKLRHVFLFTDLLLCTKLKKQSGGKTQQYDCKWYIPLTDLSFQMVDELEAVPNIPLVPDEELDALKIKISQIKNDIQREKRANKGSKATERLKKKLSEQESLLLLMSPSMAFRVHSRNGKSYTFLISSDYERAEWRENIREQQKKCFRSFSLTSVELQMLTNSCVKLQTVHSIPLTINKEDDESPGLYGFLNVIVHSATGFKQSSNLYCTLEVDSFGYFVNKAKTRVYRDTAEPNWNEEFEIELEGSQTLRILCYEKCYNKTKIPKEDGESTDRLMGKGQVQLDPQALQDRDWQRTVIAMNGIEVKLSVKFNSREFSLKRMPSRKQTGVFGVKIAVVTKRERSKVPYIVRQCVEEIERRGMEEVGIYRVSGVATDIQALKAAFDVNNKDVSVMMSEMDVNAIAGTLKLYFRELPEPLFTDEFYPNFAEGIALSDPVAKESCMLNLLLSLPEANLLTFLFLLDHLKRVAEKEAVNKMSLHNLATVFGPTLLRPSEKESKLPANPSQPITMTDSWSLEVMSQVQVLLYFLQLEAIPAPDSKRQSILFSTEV
As to conditions: cell material: Lysate mix. The essentials: as §1

For assay [5], the target named is CAMK2B (UniProt Q13554). As to conditions: cell material: Lysate mix. The essentials: as §1
Chain of CAMK2B (Q13554 whole entry): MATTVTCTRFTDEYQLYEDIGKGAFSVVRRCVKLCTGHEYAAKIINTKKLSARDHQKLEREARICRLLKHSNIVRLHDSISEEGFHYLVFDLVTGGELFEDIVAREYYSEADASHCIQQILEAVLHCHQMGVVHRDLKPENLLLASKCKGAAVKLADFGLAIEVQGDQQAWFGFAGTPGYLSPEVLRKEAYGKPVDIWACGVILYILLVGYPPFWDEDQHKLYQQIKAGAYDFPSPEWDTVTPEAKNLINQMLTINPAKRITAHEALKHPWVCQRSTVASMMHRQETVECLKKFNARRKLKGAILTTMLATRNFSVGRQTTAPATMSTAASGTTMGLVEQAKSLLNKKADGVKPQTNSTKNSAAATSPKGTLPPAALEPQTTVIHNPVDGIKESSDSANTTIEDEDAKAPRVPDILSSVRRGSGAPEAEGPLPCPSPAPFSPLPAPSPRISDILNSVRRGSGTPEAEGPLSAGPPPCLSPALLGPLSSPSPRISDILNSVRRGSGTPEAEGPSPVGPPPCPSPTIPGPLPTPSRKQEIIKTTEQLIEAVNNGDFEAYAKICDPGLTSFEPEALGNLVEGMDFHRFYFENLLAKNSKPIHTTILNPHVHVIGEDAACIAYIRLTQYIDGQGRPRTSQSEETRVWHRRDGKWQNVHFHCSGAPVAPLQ

Chain of EPHA4 (P54764 whole entry): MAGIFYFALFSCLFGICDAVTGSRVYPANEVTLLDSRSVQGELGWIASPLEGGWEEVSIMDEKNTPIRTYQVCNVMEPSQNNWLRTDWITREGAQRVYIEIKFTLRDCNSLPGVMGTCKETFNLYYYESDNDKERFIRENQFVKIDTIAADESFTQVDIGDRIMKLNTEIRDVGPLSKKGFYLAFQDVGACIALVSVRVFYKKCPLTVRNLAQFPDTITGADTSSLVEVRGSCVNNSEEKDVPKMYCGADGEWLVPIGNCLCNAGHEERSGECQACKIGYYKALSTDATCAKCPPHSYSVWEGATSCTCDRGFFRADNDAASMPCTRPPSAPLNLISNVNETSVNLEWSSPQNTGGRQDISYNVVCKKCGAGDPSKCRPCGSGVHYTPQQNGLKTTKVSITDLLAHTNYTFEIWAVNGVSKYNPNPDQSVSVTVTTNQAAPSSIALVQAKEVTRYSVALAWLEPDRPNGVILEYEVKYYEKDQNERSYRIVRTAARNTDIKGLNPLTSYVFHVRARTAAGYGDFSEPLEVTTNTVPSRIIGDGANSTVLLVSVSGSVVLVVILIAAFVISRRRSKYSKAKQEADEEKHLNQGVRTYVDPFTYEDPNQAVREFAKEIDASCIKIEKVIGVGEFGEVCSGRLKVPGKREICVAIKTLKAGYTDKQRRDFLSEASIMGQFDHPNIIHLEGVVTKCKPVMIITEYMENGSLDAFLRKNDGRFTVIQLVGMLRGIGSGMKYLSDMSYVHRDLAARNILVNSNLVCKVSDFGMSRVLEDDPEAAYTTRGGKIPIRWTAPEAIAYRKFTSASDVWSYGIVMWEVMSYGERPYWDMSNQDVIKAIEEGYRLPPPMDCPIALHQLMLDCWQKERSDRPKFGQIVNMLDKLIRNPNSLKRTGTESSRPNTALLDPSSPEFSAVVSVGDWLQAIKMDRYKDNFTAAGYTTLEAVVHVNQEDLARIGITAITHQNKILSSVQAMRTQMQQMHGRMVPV

Regarding `O=C(NCCNC(=O)c1cc(Nc2cc(C3CC3)[nH]n2)nc(N2CCN(Cc3ccc(S(=O)(=O)F)cc3)CC2)n1)OC1CC/C=C/CCC1` (stereo not drawn), the pIC50 is 5.93 in assay [1] (cell material: Jurkat cells); under 4.52 in assay [1] (cell material: Jurkat lysate); under 4.52 in assay [1] (cell material: Lysate mix); under 4.52 in assay [2] (cell material: Jurkat cells); under 4.52 in assay [2] (cell material: Jurkat lysate); under 4.52 in assay [2] (cell material: Lysate mix). The pIC50 in assay [3], in assay [4] and in assay [5] was under 4.52 each time.

With `Cc1cc(Nc2cc(C(=O)NCCNC(=O)OC3CC/C=C/CCC3)nc(N3CCN(Cc4ccc(S(=O)(=O)F)cc4)CC3)n2)n[nH]1` (stereo not drawn), the pIC50 in assay [1] (cell material: Lysate mix), in assay [2] (cell material: Lysate mix), in assay [3], in assay [4] and in assay [5] was under 4.52 throughout.

As to `CCNC(=O)c1cc(Nc2cc(C)[nH]n2)nc(N2CCN(Cc3ccc(S(=O)(=O)F)cc3)CC2)n1`, the pIC50 in assay [1] (cell material: Lysate mix), in assay [2] (cell material: Lysate mix), in assay [3], in assay [4] and in assay [5] was under 4.52 throughout.

As to `C#CCNC(=O)c1cc(Nc2cc(C3CC3)[nH]n2)nc(N2CCN(Cc3ccc(S(=O)(=O)F)cc3)CC2)n1`, the pIC50 in assay [1] (cell material: Jurkat cells) is 6.54; in assay [1] (cell material: Jurkat lysate) it was under 4.52; in assay [1] (cell material: Lysate mix), 4.84; in assay [2] (cell material: Jurkat cells), under 4.52; in assay [2] (cell material: Jurkat lysate) it was under 4.52; in assay [2] (cell material: Lysate mix), under 4.52. Further, the pIC50 in assay [3], in assay [4] and in assay [5] was under 4.52 in each case.

As for `C#CCNC(=O)c1cc(Nc2cc(C)[nH]n2)nc(N2CCN(Cc3ccc(S(=O)(=O)F)cc3)CC2)n1`, the pIC50 in assay [1] (cell material: Lysate mix), in assay [2] (cell material: Lysate mix), in assay [3], in assay [4] and in assay [5] was under 4.52 each time.

For the compound `CCNC(=O)c1cc(Nc2cc(C3CC3)[nH]n2)nc(N2CCN(Cc3ccc(S(=O)(=O)F)cc3)CC2)n1`, the pIC50 in assay [1] (cell material: Lysate mix), in assay [2] (cell material: Lysate mix), in assay [3], in assay [4] and in assay [5] was under 4.52 each time.
